Several values for one entry are separate records, joined by “and”; a condition that tells them apart may be missing. Identical values can stand only once.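 96-well plates; 48 h exposure; 5 concentrations. Endpoints by linear interpolation between flanking doses. Not reached: highest tested concentration assigned. GI50 = concentration required for 50% inhibition of growth. TGI marks complete inhibition of growth.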
Key:
Assay in all cases: growth of human tumour cells (NCI), 48 h
[1] = test system: CAKI-1 renal
[2] = test system: MOLT-4 leukemia
[3] = test system: EKVX NSCLC
[4] = test system: RPMI-8226 leukemia
[5] = test system: 786-0 renal
[6] = test system: PC-3 prostate
[7] = test system: UO-31 renal
[8] = test system: HOP-92 NSCLC
[9] = test system: SF-268 CNS
[10] = test system: MDA-N
[11] = test system: K-562 leukemia

| SMILES | TGI [1] | TGI [2] | TGI [3] | TGI [4] | TGI [5] | TGI [6] | TGI [7] | TGI [8] | TGI [9] | TGI [10] | TGI [11] | GI50 [2] | GI50 [4] | GI50 [10] |
| --- | --- | --- | --- | --- | --- | --- | --- | --- | --- | --- | --- | --- | --- | --- |
| O=c1[nH]c2nc3ccccc3c(=O)n2/c1=C/c1ccc(O)cc1 | > 100 µM | > 100 µM | > 100 µM | 53.2 µM | > 100 µM | > 100 µM | > 100 µM | > 100 µM | > 100 µM | > 100 µM |  |  |  |  |
| C=CC(=O)c1ccc2c(c1)OCCOCCOCCOCCOCCO2 | 68 µM | > 100 µM | 57.9 µM | > 100 µM | 31.1 µM | 76.5 µM | > 58 µM | 33.5 µM | > 92.8 µM | > 100 µM | > 100 µM |  |  |  |
| COc1ccc(-c2c(C#N)c(N)n(C3OC(CO)C(O)C(O)C3O)c(=S)c2C#N)cc1 (stereo not given) | > 100 µM | > 100 µM | > 100 µM | > 100 µM | > 100 µM | > 100 µM | > 100 µM | > 100 µM | > 100 µM | > 100 µM | > 100 µM |  |  |  |
| Cc1c(S(=O)(=O)c2ccccc2)c(N)n(Cc2ccccc2)c1C | > 100 µM | > 100 µM | > 100 µM | > 100 µM | > 100 µM | > 100 µM | > 100 µM | > 100 µM | > 100 µM | > 100 µM | > 100 µM |  |  |  |
| Cc1c(Cl)ccc2c(=O)c3cccc(CC(=O)O)c3oc12 | > 100 µM | > 100 µM | > 100 µM | > 100 µM | > 100 µM | > 100 µM | > 100 µM | > 100 µM | > 100 µM | > 100 µM | > 100 µM |  |  |  |
| O=c1c2ccccc2[nH]c(=S)n1-c1ccc(N=Nc2cccc3c(O)cccc23)cc1 | > 100 µM | > 100 µM | > 100 µM | > 100 µM | > 100 µM | > 100 µM | > 100 µM | > 100 µM | > 100 µM | > 100 µM | > 100 µM |  |  |  |
| Oc1ccccc1C(c1cc2c(cc1O)OCO2)N1CCOCC1 (stereo not given) | 35.9 µM | 40.6 µM | > 100 µM | 41.7 µM | 22.6 µM | 31.6 µM | 29.3 µM | 34.1 µM | 36.9 µM | 37.6 µM | 23.5 µM |  |  |  |
| CCN(CC)CCn1c2cc3c(cc2c(=O)c2cccnc21)OCCO3 | > 10 µM | > 10 µM | > 10 µM | > 10 µM | > 10 µM | > 10 µM |  | > 10 µM | > 10 µM | > 10 µM |  |  |  |  |
| N#Cc1c(N)[nH]c(=S)c(C#N)c1-c1cccc(Cl)c1 | > 100 µM | 57.8 µM | 97.9 µM | 94.5 µM | 34.2 µM | 60.1 µM | > 100 µM | > 100 µM | 56.1 µM | 37.8 µM | > 100 µM |  |  |  |
| COc1ccc(-c2c(C#N)c(S)n(C3OC(COC(C)=O)C(OC(C)=O)C(OC(C)=O)C3OC(C)=O)c(=O)c2C#N)cc1 (stereo not given) | 56.4 µM and 98.8 µM | > 100 µM | > 100 µM | > 100 µM and 60.5 µM | > 100 µM and 80.9 µM | > 100 µM | > 100 µM and 70.1 µM | 67 µM and 53.5 µM | > 100 µM | > 100 µM |  | > 100 µM and 39.2 µM | > 100 µM and 23.4 µM | > 100 µM and 34.8 µM |
| Cc1ccc2c(c1C)CC1(Cc3c(ccc4c3CCC4)C1=O)C2=O (stereo not given) | > 100 µM | > 100 µM | > 100 µM | > 100 µM | > 100 µM | > 100 µM | > 100 µM | > 100 µM | > 100 µM | > 100 µM | > 100 µM |  |  |  |
| Cc1ccc(N=Nc2c3c(c(O)c4ccccc24)CCC(C)(C)O3)cc1 | > 100 µM | > 100 µM | 75.3 µM | > 100 µM | > 100 µM | > 100 µM | 73.3 µM | > 100 µM | > 100 µM | 14.1 µM | > 100 µM |  |  |  |
| c1cc2nnc1SCCSCCSc1ccc(nn1)SCCSCCS2 | > 100 µM | > 100 µM | > 100 µM | > 100 µM | > 100 µM | > 100 µM | > 100 µM | > 100 µM | > 100 µM | > 100 µM | > 100 µM |  |  |  |
| O=C(/C(=C(/Br)I)c1ccccc1)c1ccccc1 | > 100 µM | 46.2 µM | 89.1 µM | 47.2 µM | 39.5 µM | > 100 µM | 41.3 µM | 35.6 µM | 48.5 µM | 81.9 µM | 39.3 µM |  |  |  |
| COc1ccc(Nc2c(C#N)c3n(c4ccccc24)c2ccccc2[n+]3C)cc1OC | 4.33 µM | > 29.5 µM | 10.1 µM | > 25.1 µM | 8.77 µM | 8.38 µM | 7.23 µM | > 34.2 µM | 8.25 µM | 7.21 µM | > 20 µM |  |  |  |
| CO[C@@H](C(=O)OC1C=CC2(CC1)C(=O)N(C)c1ccccc12)c1ccccc1 (stereo not given in full) | > 100 µM | > 100 µM | > 100 µM | > 100 µM | > 100 µM | > 100 µM | > 100 µM | > 100 µM |  | > 100 µM | > 100 µM |  |  |  |
| CCOC(=O)c1sc2nc(SC)nc3c2c1N=CN3c1ccc(Br)cc1 | > 100 µM | > 100 µM | > 100 µM | > 100 µM | > 100 µM | > 100 µM | > 100 µM | > 100 µM |  | > 100 µM | > 100 µM |  |  |  |
| Cc1sc2nc3n(c(=O)c2c1C)N=CN(c1ccccc1)C3 | > 100 µM | > 100 µM | > 100 µM | > 100 µM | 46.5 µM | > 100 µM | > 100 µM | 79.8 µM | > 100 µM | > 100 µM | > 100 µM |  |  |  |

— PubChem BioAssay (NCI)
